Experimental data: patent US20050209278A1, “Piperidinyl- and piperazinyl-sulfonylmethyl hydroxamic acids and their use as protease inhibitors” (priority 2002, published 2005)

target: T1, MMP-1 (Homo sapiens, UniProt P03956); assay: In vitro MMP inhibition, IC50 determination (fluorogenic substrate I); assay type: biochemical; details: value in parentheses; read-out: MMP-1 (IC-50)
T1 construct: made in house; host or cells: MMP-1-transfected HT-1080 cells (spent media)
T1 sequence (P03956 100-469): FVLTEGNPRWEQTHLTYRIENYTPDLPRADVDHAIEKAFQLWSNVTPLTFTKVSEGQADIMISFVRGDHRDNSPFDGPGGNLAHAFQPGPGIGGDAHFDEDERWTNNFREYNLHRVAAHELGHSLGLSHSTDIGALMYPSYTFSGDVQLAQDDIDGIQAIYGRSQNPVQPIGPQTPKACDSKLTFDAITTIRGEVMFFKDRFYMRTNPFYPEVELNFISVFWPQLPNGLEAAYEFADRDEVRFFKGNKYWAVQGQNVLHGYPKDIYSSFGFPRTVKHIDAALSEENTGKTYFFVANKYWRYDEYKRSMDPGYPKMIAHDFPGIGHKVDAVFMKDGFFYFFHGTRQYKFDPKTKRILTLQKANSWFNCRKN

IC50, > 10 µM:
CCCCOc1ccc(N2CCN(S(=O)(=O)C3(C(=O)NO)CCN(C(=O)CCC)CC3)CC2)cc1 [Example 290]

same assay, conditions: value in parenthesis; read-out: MMP-1 (IC-50)

IC50, > 10 µM:
CCOCCCc1ccc(N2CCN(S(=O)(=O)C3(C(=O)NO)CCN(CCOC)CC3)CC2)cc1 [Example 179]
COCCCc1ccc(N2CCN(S(=O)(=O)C3(C(=O)NO)CCN(CCOC)CC3)CC2)cc1 [Example 180]
COCCN1CCC(C(=O)NO)(S(=O)(=O)N2CCN(c3ccc(CC4CCCCC4)cc3)CC2)CC1 [Example 181]
COCCN1CCC(C(=O)NO)(S(=O)(=O)N2CCN(c3ccc(CCC4CCCC4)cc3)CC2)CC1 [Example 182]
COCCN1CCC(C(=O)NO)(S(=O)(=O)N2CCN(c3ccc(CC4CCC4)cc3)CC2)CC1 [Example 183]
CCOc1ccc(N2CCN(S(=O)(=O)C3(C(=O)NO)CCN(CCOC)CC3)CC2)cc1F [Example 184]
CCCOc1ccc(N2CCN(S(=O)(=O)C3(C(=O)NO)CCN(CCOC)CC3)CC2)cc1F [Example 185]
COCCN1CCC(C(=O)NO)(S(=O)(=O)N2CCN(c3ccc(C#N)cc3)CC2)CC1 [Example 186]
CCc1cnc(N2CCN(S(=O)(=O)C3(C(=O)NO)CCN(CCOC)CC3)CC2)nc1 [Example 187]
CCC(CC)Cc1ccc(N2CCN(S(=O)(=O)C3(C(=O)NO)CCN(CCOC)CC3)CC2)cc1 [Example 188]
